Laboratory results taken from PubChem BioAssay (NCI).
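Growth conditions: 96-well plates. Treatment: test compound, 48 hours, 5 concentrations. Analysis: linear interpolation between bracketing concentrations; unreached endpoints set to highest concentration. Definition used: TGI = concentration required for complete inhibition of growth.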

Columns and labels:
Test in all cases: NCI tumour cell line growth inhibition, 48 h
[1] = tested on: A498 renal
[2] = tested on: A549 NSCLC
[3] = tested on: CAKI-1 renal
[4] = tested on: CCRF-CEM leukemia
[5] = tested on: COLO 205 colon
[6] = tested on: DLD-1 colon
[7] = tested on: DMS 114 small cell lung
[8] = tested on: DMS 273 small cell lung
[9] = tested on: EKVX NSCLC
[10] = tested on: HCC-2998 colon
[11] = tested on: HCT-116 colon
[12] = tested on: HCT-15 colon
[13] = tested on: HL-60(TB) leukemia
[14] = tested on: HOP-18 NSCLC
[15] = tested on: HOP-62 NSCLC
[16] = tested on: HOP-92 NSCLC
[17] = tested on: HT29 colon
[18] = tested on: IGROV1 ovarian
[19] = tested on: K-562 leukemia
[20] = tested on: KM12 colon
[21] = tested on: KM20L2 colon
[22] = tested on: LOX IMVI melanoma
[23] = tested on: M19-MEL melanoma
[24] = tested on: MALME-3M melanoma
[25] = tested on: MCF7 breast
[26] = tested on: MOLT-4 leukemia
[27] = tested on: NCI-H226 lung
[28] = tested on: NCI-H23 lung
[29] = tested on: NCI-H460 lung
[30] = tested on: NCI-H522 lung
[31] = tested on: NCI/ADR-RES ovarian
[32] = tested on: OVCAR-3 ovarian
[33] = tested on: OVCAR-4 ovarian
[34] = tested on: OVCAR-5 ovarian
[35] = tested on: OVCAR-8 ovarian
[36] = tested on: P388 leukemia
[37] = tested on: P388/ADR leukemia
[38] = tested on: RPMI-8226 leukemia
[39] = tested on: RXF 393 renal
[40] = tested on: SF-268 CNS
[41] = tested on: SF-295 CNS
[42] = tested on: SF-539 CNS
[43] = tested on: SK-MEL-2 melanoma
[44] = tested on: SK-MEL-28 melanoma
[45] = tested on: SK-MEL-5 melanoma
[46] = tested on: SK-OV-3 ovarian
[47] = tested on: SN12C renal
[48] = tested on: SN12K1 renal
[49] = tested on: SNB-19 CNS
[50] = tested on: SNB-75 CNS
[51] = tested on: SNB-78 CNS
[52] = tested on: SW-620 colon
[53] = tested on: U251 CNS
[54] = tested on: UACC-257 melanoma
[55] = tested on: UACC-62 melanoma
[56] = tested on: UO-31 renal
[57] = tested on: XF 498 CNS
[58] = tested on: 786-0 renal
[59] = tested on: ACHN renal
[60] = tested on: LXFL 529 NSCLC
[61] = tested on: M14 melanoma
[62] = tested on: RXF-631 renal
[63] = tested on: SR leukemia
[64] = tested on: TK-10 renal

Measured: TGI

O=C1c2ccccc2C(O)(C(=O)O)C1(O)CC=C(Cl)Cl (stereo unspecified)
> 70.3 µM: [37]
> 125 µM: [1] | [2] | [3] | [4] | [5] | [6] | [7] | [8] | [9] | [10] | [11] | [12] | [13] | [14] | [15] | [17] | [18] | [19] | [20] | [21] | [22] | [23] | [24] | [25] | [26] | [27] | [28] | [29] | [30] | [31] | [32] | [33] | [34] | [35] | [36] | [38] | [39] | [40] | [41] | [42] | [43] | [44] | [45] | [46] | [47] | [48] | [50] | [51] | [52] | [53] | [54] | [55] | [56] | [57]
> 78.9 µM: [49]
> 117 µM: [16]

CCOC(=O)NC(=O)c1cn(CC(=O)NCC(=O)NCC(=O)NCCCN2CCN(CCCNC(=O)CNC(=O)CNC(=O)Cn3cc(C(=O)NC(=O)OCC)c(=O)[nH]c3=O)CC2)c(=O)[nH]c1=O
> 100 µM: [58] | [1] | [2] | [59] | [3] | [4] | [5] | [6] | [7] | [8] | [10] | [11] | [12] | [13] | [14] | [15] | [16] | [17] | [18] | [19] | [20] | [21] | [22] | [60] | [61] | [23] | [24] | [26] | [28] | [29] | [30] | [32] | [34] | [35] | [62] | [40] | [41] | [42] | [43] | [44] | [45] | [46] | [47] | [49] | [50] | [51] | [63] | [52] | [64] | [53] | [54] | [55] | [56] | [57]

NC(=O)C(=Cc1ccc(C(O)P(=O)(O)O)cc1)C(N)=O (stereo unspecified)
> 100 µM: [58] | [1] | [2] | [59] | [3] | [5] | [6] | [7] | [8] | [9] | [10] | [11] | [12] | [14] | [15] | [16] | [17] | [18] | [19] | [20] | [21] | [22] | [60] | [61] | [23] | [24] | [26] | [28] | [29] | [30] | [32] | [33] | [34] | [35] | [38] | [39] | [62] | [41] | [42] | [43] | [44] | [45] | [46] | [47] | [49] | [50] | [51] | [52] | [64] | [53] | [54] | [55] | [56] | [57]

O=[N+]([O-])c1cccc(/C=N\NS(=O)(=O)c2ccc(Cl)cc2)c1O
> 100 µM: [58] | [1] | [2] | [59] | [3] | [4] | [5] | [6] | [8] | [9] | [10] | [11] | [12] | [13] | [14] | [15] | [16] | [17] | [18] | [19] | [20] | [21] | [22] | [60] | [61] | [23] | [24] | [26] | [28] | [29] | [30] | [32] | [33] | [34] | [35] | [38] | [39] | [62] | [40] | [41] | [42] | [43] | [44] | [45] | [46] | [47] | [49] | [50] | [51] | [52] | [64] | [53] | [54] | [55] | [56]
60.5 µM: [63]
